# Experiments:
# Carbonic anhydrase 9 = Carbonic anhydrase 9 (Homo sapiens, UniProt Q16790); assay: Inhibition of human carbonic anhydrase 9 preincubated for 15 mins by CO2 hydration stopped-flow assay
# Carbonic anhydrase 2 = Carbonic anhydrase 2 (Homo sapiens, UniProt P00918); assay: Inhibition of human carbonic anhydrase 2 preincubated for 15 mins by CO2 hydration stopped-flow assay
# Carbonic anhydrase 12 = Carbonic anhydrase 12 (Homo sapiens, UniProt O43570)
# Carbonic anhydrase 1 = Carbonic anhydrase 1 (Homo sapiens, UniProt P00915); assay: Inhibition of human carbonic anhydrase 1 preincubated for 15 mins by CO2 hydration stopped-flow assay
# Carbonic anhydrase 1, sequence (P00915 whole entry): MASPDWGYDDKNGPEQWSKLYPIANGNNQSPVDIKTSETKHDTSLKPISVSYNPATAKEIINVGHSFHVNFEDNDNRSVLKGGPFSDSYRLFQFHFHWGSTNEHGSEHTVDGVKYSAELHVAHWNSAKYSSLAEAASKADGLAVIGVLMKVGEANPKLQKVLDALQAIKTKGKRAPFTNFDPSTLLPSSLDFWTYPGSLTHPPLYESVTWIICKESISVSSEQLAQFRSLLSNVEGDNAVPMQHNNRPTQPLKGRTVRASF
# Carbonic anhydrase 12, sequence (O43570 whole entry): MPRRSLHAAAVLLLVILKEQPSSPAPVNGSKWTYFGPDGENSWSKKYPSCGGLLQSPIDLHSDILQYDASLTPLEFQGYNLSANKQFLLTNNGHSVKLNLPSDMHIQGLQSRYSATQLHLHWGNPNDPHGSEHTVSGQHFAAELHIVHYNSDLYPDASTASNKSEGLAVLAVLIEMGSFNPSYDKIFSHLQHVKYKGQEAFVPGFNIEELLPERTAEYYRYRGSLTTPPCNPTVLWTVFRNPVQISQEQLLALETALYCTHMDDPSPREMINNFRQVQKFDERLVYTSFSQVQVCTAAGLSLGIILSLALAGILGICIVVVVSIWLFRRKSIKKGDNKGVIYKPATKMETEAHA
Ki (Carbonic anhydrase 9) [µM],Ki (Carbonic anhydrase 2) [µM],Ki (Carbonic anhydrase 12) [µM],Ki (Carbonic anhydrase 1) [µM],Compound
4.06,–,–,–,"COc1ccc(OC)c(OC)c1 [1,2,4-TRIMETHOXYBENZENE]"
–,3.35,–,–,"COc1ccc(OC)cc1 [1,4-DIMETHOXYBENZENE]"
4.41,–,3.67,0.55,"O=C(O)c1cc(O)cc(O)c1 [3,5-DIHYDROXYBENZOIC ACID]"
4.53,0.6,3.53,2.37,O=C(O)c1cccc(O)c1 [3-HYDROXYBENZOIC ACID]
4.45,–,4.09,1.08,O=C(O)c1ccc(O)c(O)c1 [PROTOCATECHUIC ACID]

Compound,Ki (Carbonic anhydrase 9) [µM],Ki (Carbonic anhydrase 2) [µM],Ki (Carbonic anhydrase 12) [µM],Ki (Carbonic anhydrase 1) [µM]
COc1ccc(C(=O)O)cc1OC [VERATRIC ACID],8.25,6.18,6.7,6.83

# From ChEMBL document CHEMBL1667861, “Kinetic and docking studies of phenol-based inhibitors of carbonic anhydrase isoforms I, II, IX and XII evidence a new binding mode within the enzyme active site” (Bioorg Med Chem, 2011)
